This passage reports TGI and GI50 results from PubChem BioAssay (NCI).

“And” between values parts separate entries of the source, which are not always exact repeats. Equal entries are not always repeated.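 Values below derive from 48-hour exposures of cells grown in 96-well plates, with endpoints linearly interpolated between the two concentrations bracketing the appropriate inhibition level. Here, GI50 denotes the concentration required for 50% inhibition of growth. The concentration for full growth arrest is given as TGI.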

The subject of the first experiment is NCI-H522 lung. In words: inhibition of tumour cell growth, NCI panel, 48 h.
The molecule `O=[N+]([O-])c1cc(Cl)ccc1Sc1ccccc1` displayed a TGI of more than 100 µM.

`Nc1ccc(-c2nn3c(COc4ccc(Cl)cc4)nnc3s2)cc1`: the TGI is more than 100 µM.

In turn, `COP(=O)(OC)C(Nc1ccc(Cc2ccc(NC(c3ccco3)P(=O)(OC)OC)cc2)cc1)c1ccco1` (centres undefined) had a TGI of more than 100 µM.

`C(=C\c1ccccc1)/COc1ccccc1C(N1CCOCC1)n1nc2ccccc2n1` (centres undefined) came in with a TGI of 49.3 µM.

The molecule `O=C(CC(=O)Nc1ccccc1)NNC(c1cc(N=Nc2ccc(Br)cc2)ccc1O)P(O)O` (centres undefined) yielded a TGI of more than 10 µM.

Turning to `CCOC(=O)C1CCC(=O)N1C(=O)c1ccccc1Cl` (centres undefined), the TGI is more than 100 µM.

`CCOC(=O)c1ccc(Nc2nc3ccc(C(F)(F)F)cc3nc2C(=O)OCC)cc1` gave a TGI of more than 100 µM.

`c1ccc([P+](CCCCCCCC[P+](c2ccccc2)(c2ccccc2)c2ccccc2)(c2ccccc2)c2ccccc2)cc1` gave a TGI of 12.1 µM.

For the molecule `O=C1C(C(O)(C(F)(F)F)C(F)(F)F)CCC1C(O)(C(F)(F)F)C(F)(F)F` (centres undefined), the TGI stood at 18.9 µM.

The molecule `CCOC(=O)C1=CC(C)(C(=O)OCC)Nc2c(nc(N)[nH]c2=O)N1` (centres undefined) had a TGI of more than 10 µM.

The test system of another experiment is COLO 205 colon. The experiment is described as follows: inhibition of tumour cell growth, NCI panel, 48 h.
In the case of `COc1cc(C(O)c2ccc3c(c2)OCO3)cc(OC)c1OC` (centres undefined), the TGI was more than 100 µM.

Regarding `Cc1cc(C)nc(NS(=O)(=O)c2ccc(NC(=O)c3cccc4c(NNc5ccc(S(=O)(=O)N=C(N)N)cc5)c5ccccc5nc34)cc2)n1`, the TGI is more than 50 µM.

With `O=C(CC(C(=O)c1ccco1)c1ccco1)c1ccco1` (centres undefined), the TGI was more than 100 µM.

For the molecule `CCOC(=O)c1sc2ncnc(N)c2c1C`, the TGI is more than 100 µM.

On to `C=CCN1C(=O)/C(=C/c2ccc(C)cc2)N=C1SC1OC(COC(C)=O)C(OC(C)=O)C(OC(C)=O)C1OC(C)=O` (centres undefined), for which the TGI was more than 100 µM.

For the molecule `O=C1CS(=O)(=O)C(c2cccc(Oc3ccccc3)c2)N1c1cc(Cl)ccc1Cl` (centres undefined), the TGI was more than 100 µM.

In the case of `COc1ccc(OC)c2sc(N3C(=O)/C(=C/c4cccc([N+](=O)[O-])c4)N=C3c3ccccc3)nc12`, the TGI was more than 100 µM.

In turn, `Cc1cccc(/C(Br)=C2/OC(=O)c3ccccc32)c1` showed a TGI of more than 100 µM.

Consider `N#Cc1c(-c2ccccc2)c2c([nH]c1=O)-c1cc([N+](=O)[O-])ccc1CCC2`, for which the TGI amounted to 55.3 µM.

`O=[N+]([O-])c1cc(Cl)ccc1Sc1ccccc1` gave a TGI of more than 100 µM.

`Nc1ccc(-c2nn3c(COc4ccc(Cl)cc4)nnc3s2)cc1` returned a TGI of more than 100 µM.

`COP(=O)(OC)C(Nc1ccc(Cc2ccc(NC(c3ccco3)P(=O)(OC)OC)cc2)cc1)c1ccco1` (centres undefined) had a TGI of more than 100 µM.

As to `C(=C\c1ccccc1)/COc1ccccc1C(N1CCOCC1)n1nc2ccccc2n1` (centres undefined), the TGI came to 36.6 µM.

Molecule `O=C(CC(=O)Nc1ccccc1)NNC(c1cc(N=Nc2ccc(Br)cc2)ccc1O)P(O)O` (centres undefined) returned a TGI of more than 10 µM.

`CCOC(=O)c1ccc(Nc2nc3ccc(C(F)(F)F)cc3nc2C(=O)OCC)cc1` showed a TGI of more than 100 µM.

As to `c1ccc([P+](CCCCCCCC[P+](c2ccccc2)(c2ccccc2)c2ccccc2)(c2ccccc2)c2ccccc2)cc1`, the TGI amounted to 2.71 µM.

As to `O=C1C(C(O)(C(F)(F)F)C(F)(F)F)CCC1C(O)(C(F)(F)F)C(F)(F)F` (centres undefined), the TGI was determined as 1.86 µM.

With `CCOC(=O)C1=CC(C)(C(=O)OCC)Nc2c(nc(N)[nH]c2=O)N1` (centres undefined), the TGI was more than 10 µM.

A further experiment has as its system UACC-62 melanoma. The experiment is described as follows: inhibition of tumour cell growth, NCI panel, 48 h.
`COc1cc(C(O)c2ccc3c(c2)OCO3)cc(OC)c1OC` (centres undefined) came in with a TGI of more than 100 µM.

As for `Cc1cc(C)nc(NS(=O)(=O)c2ccc(NC(=O)c3cccc4c(NNc5ccc(S(=O)(=O)N=C(N)N)cc5)c5ccccc5nc34)cc2)n1`, the TGI was more than 50 µM.

In turn, `O=C(CC(C(=O)c1ccco1)c1ccco1)c1ccco1` (centres undefined) yielded a TGI of more than 100 µM.

`CCOC(=O)c1sc2ncnc(N)c2c1C` showed a TGI of more than 100 µM.

For `C=CCN1C(=O)/C(=C/c2ccc(C)cc2)N=C1SC1OC(COC(C)=O)C(OC(C)=O)C(OC(C)=O)C1OC(C)=O` (centres undefined), the GI50 is 3.83 µM and 37.1 µM; the TGI was more than 100 µM.

In the case of `O=C1CS(=O)(=O)C(c2cccc(Oc3ccccc3)c2)N1c1cc(Cl)ccc1Cl` (centres undefined), the TGI amounted to 31.9 µM.

Consider `COc1ccc(OC)c2sc(N3C(=O)/C(=C/c4cccc([N+](=O)[O-])c4)N=C3c3ccccc3)nc12`, for which the TGI is more than 100 µM.

In turn, `Cc1cccc(/C(Br)=C2/OC(=O)c3ccccc32)c1` returned a TGI of more than 100 µM.

`N#Cc1c(-c2ccccc2)c2c([nH]c1=O)-c1cc([N+](=O)[O-])ccc1CCC2` came in with a TGI of 37.3 µM.

For the molecule `O=[N+]([O-])c1cc(Cl)ccc1Sc1ccccc1`, the TGI is more than 100 µM.

In turn, `Nc1ccc(-c2nn3c(COc4ccc(Cl)cc4)nnc3s2)cc1` had a TGI of more than 100 µM.

In turn, `COP(=O)(OC)C(Nc1ccc(Cc2ccc(NC(c3ccco3)P(=O)(OC)OC)cc2)cc1)c1ccco1` (centres undefined) registered a TGI of 50.5 µM.

`C(=C\c1ccccc1)/COc1ccccc1C(N1CCOCC1)n1nc2ccccc2n1` (centres undefined) yielded a TGI of 16.4 µM.

In the case of `O=C(CC(=O)Nc1ccccc1)NNC(c1cc(N=Nc2ccc(Br)cc2)ccc1O)P(O)O` (centres undefined), the TGI amounted to 9.13 µM.

Take `CCOC(=O)C1CCC(=O)N1C(=O)c1ccccc1Cl` (centres undefined): the TGI worked out at 95.5 µM.

In the case of `CCOC(=O)c1ccc(Nc2nc3ccc(C(F)(F)F)cc3nc2C(=O)OCC)cc1`, the TGI is more than 100 µM.

`c1ccc([P+](CCCCCCCC[P+](c2ccccc2)(c2ccccc2)c2ccccc2)(c2ccccc2)c2ccccc2)cc1` had a TGI of more than 94.4 µM.

Consider `O=C1C(C(O)(C(F)(F)F)C(F)(F)F)CCC1C(O)(C(F)(F)F)C(F)(F)F` (centres undefined), for which the TGI is more than 100 µM.

A further experiment has as its system MOLT-4 leukemia. The experiment is described as follows: inhibition of tumour cell growth, NCI panel, 48 h.
`COc1cc(C(O)c2ccc3c(c2)OCO3)cc(OC)c1OC` (centres undefined) yielded a TGI of more than 100 µM.

For the molecule `Cc1cc(C)nc(NS(=O)(=O)c2ccc(NC(=O)c3cccc4c(NNc5ccc(S(=O)(=O)N=C(N)N)cc5)c5ccccc5nc34)cc2)n1`, the TGI is more than 50 µM.
